For one assay, the system named is MK-2. The following applies: cited from earlier work.
For assay [1], the target named is T1, Human MAPKAP kinase-2 (45-371) (human, UniProt P49137 45-371).
T1 construct: Expressed in E. coli as a GST fusion; One copy of the complex per asymmetric unit; also called MK-2(45-371); MK-2
The experiment in a line: X-ray crystallography of MK-2 co-crystallized with AMP-PNP, SC-83598 and MgCl2.
Protocol: Following this general procedure the co-crystals were grown by sitting drop vapor diffusion. […] This protein solution was mixed in a 1:1 ratio with a reservoir solution containing around 1.6-2.6M ammonium sulfate and 100 mM sodium acetate, the reservoir solution being at a pH of between around 4.2-5.4. Small bipyramidal or prism-shaped crystals appeared in the drops in 1-2 days and grew to as large as 0.4 mm×0.4 mm in about 1 to 3 weeks.
Small bipyramidal or prism-shaped crystals appeared in the drops in 1-2 days and grew to as large as 0.4 mm×0.4 mm over 1-3 weeks.

Ends that are not written are not given here.

T1 sequence (P49137 45-371 limits assumed): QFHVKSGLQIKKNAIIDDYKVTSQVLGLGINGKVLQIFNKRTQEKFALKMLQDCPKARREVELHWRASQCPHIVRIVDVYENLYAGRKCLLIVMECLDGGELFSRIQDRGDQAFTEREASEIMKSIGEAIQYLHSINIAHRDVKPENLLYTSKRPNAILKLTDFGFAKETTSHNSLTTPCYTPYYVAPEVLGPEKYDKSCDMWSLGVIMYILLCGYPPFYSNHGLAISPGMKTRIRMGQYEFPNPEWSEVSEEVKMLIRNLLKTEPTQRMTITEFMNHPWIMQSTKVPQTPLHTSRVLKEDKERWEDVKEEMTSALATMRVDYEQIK

As to `C[S+]([O-])c1ccc(-c2nc(-c3ccncc3)c(-c3ccc(F)cc3)[nH]2)cc1` (centres unmarked) [SB203580], the “activation of MK-2” value in the assay with MK-2 is listed as “inhibit activation of MK-2”.

B1: SC-83598 (13-residue inhibitor peptide) (peptide)
peptide: KKKALLRQLGVAA
modifications: not fully specified
In the case of B1, in assay [1], the binding result is listed as “binds”.

Source of the values: US20040005686A1, “Crystalline structure of human MAPKAP kinase-2” (Pharmacia Corporation, priority 2002, published 2004).
